The values below come from ChEMBL document CHEMBL4340555, “Synthesis and biological evaluation of 2-chloro-3-[(thiazol-2-yl)amino]-1,4-naphthoquinones” (Bioorg Med Chem Lett, 2019).

pIC50: −log10 of the molar value. In brackets after ≈: the same amount, converted by molar mass. Activity calls are given as the source filed them. The rule behind the calls is not given here.

One data set concerns HeLa. The data set can be described thus: Cytotoxicity against human HeLa cells assessed as cell viability at 20 uM after 24 hrs by resazurin based fluorescence assay relative to control. In kind it is functional. Particulars: read-out: Activity.
The test system of data set [1] is Pseudomonas aeruginosa. The data set can be described thus: Antimicrobial activity against Pseudomonas aeruginosa assessed as zone of inhibition at 2000 uM/disk after 24 hrs by disk diffusion method. Format: functional. Particulars: for zone of inhibition at 2000 µM: read-out: DIZ.
Data set [2] deals with Pseudomonas aeruginosa. Put plainly: Antimicrobial activity against Pseudomonas aeruginosa assessed as zone of inhibition after 24 hrs by disk diffusion method. In kind it is functional, organism-based.
A further data set concerns SH-SY5Y. Put plainly: Cytotoxicity against human SH-SY5Y assessed as reduction in cell viability after 48 hrs by xCELLigence RTCA SP analysis. In kind it is functional, cell-based.
The test system of data set [3] is Mycobacterium tuberculosis. The data set can be described thus: Antitubercular activity against Mycobacterium tuberculosis H37Rv assessed as reduction in bacterial growth after 14 days by green fluorescent protein microplate assay. In kind it is functional. As to conditions: 336 h.
The test system of data set [4] is Pseudomonas aeruginosa. The data set can be described thus: Antimicrobial activity against Pseudomonas aeruginosa assessed as zone of inhibition at 100 uM/disk after 24 hrs by disk diffusion method. Format: functional. Particulars: for zone of inhibition at 100 µM: read-out: DIZ.
Data set [5] deals with Mycobacterium tuberculosis. The data set can be described thus: Antitubercular activity against Mycobacterium tuberculosis H37Rv assessed as reduction in bacterial growth after 7 days by green fluorescent protein microplate assay. Format: functional. Particulars: 168 h.
The subject of data set [6] is Plasmodium falciparum. Put plainly: Antimalarial activity against Plasmodium falciparum 3D7 assessed as reduction in parasite viability by parasite lactate dehydrogenase release based colorimetric assay. In kind it is functional, organism-based.
Data set [7] has as its system Pseudomonas aeruginosa. Put plainly: Antimicrobial activity against Pseudomonas aeruginosa assessed as zone of inhibition at 1000 uM/disk after 24 hrs by disk diffusion method. Format: functional. As to conditions: for zone of inhibition at 1000 µM: read-out: DIZ.
Data set [8] deals with Pseudomonas aeruginosa. The data set can be described thus: Antimicrobial activity against Pseudomonas aeruginosa assessed as zone of inhibition at 10 uM/disk after 24 hrs by disk diffusion method. Format: functional. Particulars: for zone of inhibition at 10 µM: read-out: DIZ.
A short description of data set [9]: Lipophilicity, log P of the compound. In kind it is physicochemical. Particulars: octanol/water.
The subject of data set [10] is Pseudomonas aeruginosa. The data set can be described thus: Antimicrobial activity against Pseudomonas aeruginosa assessed as zone of inhibition at 1 uM/disk after 24 hrs by disk diffusion method. Format: functional.
Data set [11] concerns Plasmodium falciparum. Put plainly: Antimalarial activity against Plasmodium falciparum 3D7 assessed as reduction in parasite viability at 20 uM by parasite lactate dehydrogenase released based colorimetric assay relative to control. Format: functional.
Data set [12] concerns Pseudomonas aeruginosa. Put plainly: Antimicrobial activity against Pseudomonas aeruginosa assessed as zone of inhibition at 10 ug/disk after 24 hrs by disk diffusion method. In kind it is functional. Particulars: read-out: DIZ.
Data set [13] relates to Plasmodium falciparum. The data set can be described thus: Stimulation of parasite proliferation of Plasmodium falciparum 3D7 assessed as increase in parasite viability at 20 uM by parasite lactate dehydrogenase released based colorimetric assay relative to control. In kind it is organism-based.
Data set [14] relates to Pseudomonas aeruginosa. The data set can be described thus: Antimicrobial activity against Pseudomonas aeruginosa assessed as zone of inhibition at 25 ug/disk after 24 hrs by disk diffusion method. Particulars: read-out: DIZ. In kind it is functional.

With `O=C1C(Cl)=C(Nc2nc(-c3ccc(F)cc3)cs2)C(=O)c2ccccc21`, the viability at 20 µM with HeLa was determined as 75%. For the same compound, the zone of inhibition at 2000 µM with Pseudomonas aeruginosa [1] was found to be 19.5 mm. Further, the Activity result in the data set on Pseudomonas aeruginosa [2] and in the data set on SH-SY5Y was “Dose-dependent effect” each time. Moreover, the results for the negative-log IC50 (pIC50) in the data set with SH-SY5Y and in the data set on Plasmodium falciparum [6] were 5.82 and 4.35, respectively. In addition, the MIC99 in data set [3] was determined as 10.4 µM (≈ 4 µg/mL). The zone of inhibition at 100 µM with Pseudomonas aeruginosa [4] is 11 mm. Besides, the MIC90 in [5] is 9.37 µM (≈ 3.61 µg/mL). For the same compound, the zone of inhibition at 1000 µM in the data set with Pseudomonas aeruginosa [7] was found to be 15 mm. Besides, the zone of inhibition at 10 µM in the data set on Pseudomonas aeruginosa [8] came to 8 mm. Also, the logP in data set [9] is < 5. Also, the zone of inhibition at 1 µM in the data set with Pseudomonas aeruginosa [10] (read-out: DIZ) is 5 mm. Also, in the data set on Plasmodium falciparum [11], the inhibition at 20 µM was 80 to 90%.
Regarding `CCN(CC)CCCC(C)Nc1ccnc2cc(Cl)ccc12` (centres undefined) [CHLOROQUINE], the viability at 20 µM with HeLa turned out to be 3.6%. Besides, the “diameter of the inhibition zone (DIZ)” value with Pseudomonas aeruginosa [1], in the data set with Pseudomonas aeruginosa [4], with Pseudomonas aeruginosa [7], in the data set on Pseudomonas aeruginosa [8] and in the data set on Pseudomonas aeruginosa [10] was “inactive” throughout.
Turning to `O=C1C(Cl)=C(Nc2nc(-c3ccc([N+](=O)[O-])cc3)cs2)C(=O)c2ccccc21`, in the data set with HeLa, the viability at 20 µM is 80%. The zone of inhibition at 2000 µM with Pseudomonas aeruginosa [1] came to 14.1 mm. Further, the Activity result in the data set on Pseudomonas aeruginosa [2] and with SH-SY5Y was “Dose-dependent effect” throughout. Also, in data set [3], the MIC99 was > 20 µM. Besides, the zone of inhibition at 100 µM in the data set with Pseudomonas aeruginosa [4] was 7.2 mm. For the same compound, in [5], the MIC90 is > 20 µM. Moreover, in the data set with Plasmodium falciparum [6], the pIC50 was 4.69. Besides, in the data set on Pseudomonas aeruginosa [7], the zone of inhibition at 1000 µM was found to be 11 mm. In addition, the “diameter of the inhibition zone (DIZ)” value in the data set on Pseudomonas aeruginosa [8] and with Pseudomonas aeruginosa [10] was “inactive” each time. Besides, in data set [9], the logP is < 5. Also, the inhibition at 20 µM in the data set with Plasmodium falciparum [11] was 80 to 90%.
On to `CO[C@H]1/C=C/O[C@@]2(C)Oc3c(C)c(O)c4c(O)c(c(/C=N/N5CCN(C)CC5)c(O)c4c3C2=O)NC(=O)/C(C)=C\C=C\[C@H](C)[C@H](O)[C@@H](C)[C@@H](O)[C@@H](C)[C@H](OC(C)=O)[C@@H]1C` [RIFAMPIN], for which, in [3], the MIC99 stood at 0.00167 µM (≈ 0.00137 µg/mL). Besides, the MIC90 in [5] is 0.0015 µM (≈ 0.00123 µg/mL).
With `CN[C@@H]1[C@H](O[C@H]2[C@H](O[C@H]3[C@H](O)[C@@H](O)[C@H](N=C(N)N)[C@@H](O)[C@@H]3N=C(N)N)O[C@@H](C)[C@]2(O)C=O)O[C@@H](CO)[C@H](O)[C@H]1O` [STREPTOMYCIN], the zone of inhibition at 10 µg/disc with Pseudomonas aeruginosa [12] worked out at 20 mm.
As to `O=C(O)c1csc(NC2=C(Cl)C(=O)c3ccccc3C2=O)n1`, in the data set with HeLa, the viability at 20 µM stood at 75%. In addition, the “diameter of the inhibition zone (DIZ)” value in the data set on Pseudomonas aeruginosa [1], with Pseudomonas aeruginosa [4], with Pseudomonas aeruginosa [7], with Pseudomonas aeruginosa [8] and in the data set with Pseudomonas aeruginosa [10] was “inactive” throughout. Moreover, the Activity entry was “Dose-dependent effect” in the data set on SH-SY5Y and 15% with Plasmodium falciparum [13]. In addition, the pIC50 in the data set with SH-SY5Y was < 4.00. In [3], the MIC99 is > 20 µM. Moreover, the MIC90 in data set [5] was > 20 µM. For the same compound, the lipophilicity (logP) in data set [9] is < 5.
For the compound `O=C1C(Cl)=C(Nc2nc(-c3ccccc3)cs2)C(=O)c2ccccc21`, the viability at 20 µM in the data set with HeLa came to 80%. Further, in the data set with Pseudomonas aeruginosa [1], the zone of inhibition at 2000 µM is 13.2 mm. Moreover, the Activity result in the data set with Pseudomonas aeruginosa [2] and in the data set on SH-SY5Y was “Dose-dependent effect” each time. For the same compound, in the data set on SH-SY5Y, the negative-log IC50 (pIC50) was 5.74. Also, the MIC99 in [3] is 10.2 µM (≈ 3.74 µg/mL). For the same compound, the zone of inhibition at 100 µM in the data set with Pseudomonas aeruginosa [4] amounted to 9.1 mm. Besides, the MIC90 in data set [5] came out at 9.19 µM (≈ 3.37 µg/mL). For the same compound, in the data set with Pseudomonas aeruginosa [7], the zone of inhibition at 1000 µM was determined as 11.4 mm. The zone of inhibition at 10 µM with Pseudomonas aeruginosa [8] was 5.3 mm. In addition, in data set [9], the logP is < 5. Moreover, the “diameter of the inhibition zone (DIZ)” value in the data set on Pseudomonas aeruginosa [10] was “inactive”. Moreover, in the data set on Plasmodium falciparum [11], the inhibition at 20 µM was determined as 10%.
Regarding `O=C1C(Cl)=C(Nc2nc(-c3ccc(Cl)cc3)cs2)C(=O)c2ccccc21`, the viability at 20 µM in the data set with HeLa stood at 80%. Also, the zone of inhibition at 2000 µM in the data set on Pseudomonas aeruginosa [1] worked out at 12 mm. Also, the Activity entry with Pseudomonas aeruginosa [2] and with SH-SY5Y was “Dose-dependent effect” in each case. The negative logarithm of the IC50 (pIC50) with SH-SY5Y is 5.57. Also, the MIC99 in data set [3] was > 20 µM. Besides, the zone of inhibition at 100 µM with Pseudomonas aeruginosa [4] stood at 7.6 mm. In addition, in [5], the MIC90 was > 20 µM. The zone of inhibition at 1000 µM in the data set with Pseudomonas aeruginosa [7] came out at 9.7 mm. Besides, the “diameter of the inhibition zone (DIZ)” value with Pseudomonas aeruginosa [8] and in the data set on Pseudomonas aeruginosa [10] was “inactive” throughout. In data set [9], the logP is < 5. Besides, the inhibition at 20 µM in the data set on Plasmodium falciparum [11] worked out at 30%.
Regarding `CC1(C)S[C@@H]2[C@H](NC(=O)[C@H](N)c3ccccc3)C(=O)N2[C@H]1C(=O)O` [AMPICILLIN], the zone of inhibition at 25 µg/disc in the data set on Pseudomonas aeruginosa [14] was determined as 24.7 mm.
On to `O=C1C(Cl)=C(Nc2nc(-c3ccc(Br)cc3)cs2)C(=O)c2ccccc21`, for which the viability at 20 µM in the data set on HeLa came to 55%. Further, the “diameter of the inhibition zone (DIZ)” value with Pseudomonas aeruginosa [1], in the data set with Pseudomonas aeruginosa [4], with Pseudomonas aeruginosa [7], with Pseudomonas aeruginosa [8] and in the data set on Pseudomonas aeruginosa [10] was “inactive” in each case. Moreover, in the data set on SH-SY5Y, the Activity result is “Dose-dependent effect”. Also, the MIC99 in [3] is > 20 µM. Besides, the MIC90 in data set [5] was > 20 µM. For the same compound, the pIC50 with Plasmodium falciparum [6] was 4.30. Besides, in data set [9], the logP was < 5. In addition, in the data set on Plasmodium falciparum [11], the inhibition at 20 µM is 80 to 90%.
Turning to `CCOC(=O)c1csc(NC2=C(Cl)C(=O)c3ccccc3C2=O)n1`, the viability at 20 µM with HeLa worked out at 82%. The “diameter of the inhibition zone (DIZ)” value in the data set on Pseudomonas aeruginosa [1], in the data set on Pseudomonas aeruginosa [4], in the data set on Pseudomonas aeruginosa [7], in the data set on Pseudomonas aeruginosa [8] and in the data set with Pseudomonas aeruginosa [10] was “inactive” in each case. The Activity result in the data set with SH-SY5Y is “Dose-dependent effect”. The negative-log IC50 (pIC50) in the data set with SH-SY5Y was 4.51. Further, the MIC99 in data set [3] was > 20 µM. Besides, the MIC90 in data set [5] was 19.5 µM (≈ 7.07 µg/mL). For the same compound, the logP in data set [9] was < 5. For the same compound, in the data set on Plasmodium falciparum [11], the inhibition at 20 µM is 40%.
